In patent US6843979B2, “4-haloethenylphenyl tropane:serotonin transporter imaging agents” (Emory University, priority 1999, dated 2005):
“And” between values parts separate entries of the source, which are not always exact repeats. Identical values can stand only once.

How the values were obtained:
[1] = target: dopamine transporter (DAT) (Rattus norvegicus, UniProt P23977); settings: vs [3H]WIN 35428; cited from earlier work
SERT [2] = settings: cited from earlier work
SERT [3] = target: T1, SERT (Rattus norvegicus, UniProt P31652); experiment: Tissue uptake of [18F]FEINT in rats; assay type: in vivo, Sprague Dawley rat; settings: for Clearance from the hypothalamus: rat
T1 construct: from tissue; host or cells: brain and other tissues of living male Sprague Dawley rats
Procedure: The in vivo regional brain tissue distribution of [^18F]FEBrNT (Table 2) and [^18F]FEINT Tables 3 and 4) were compared with a preliminary study in rats. […] The hypothalamus to cerebellum ratios for [^18F]FEBrNT were 5.7 at 60 min post injection in comparison to 4.8 for [^18F]FEINT. […] The regional distribution of [^18F]FEBrNT and [^18F]FEINT were next studied in the brain of rhesus monkeys.

SERT sites = experiment: In vitro autoradiography, coronal brain slices; assay type: binding, pig tailed macaque
Procedure: [^18F]FEINT and [^18F]FEBrNT were incubated with pig tailed macaque coronal brain slices and the slices exposed to film for 30 min. […] Incubation of the brain slices with [^18F]FEINT (FIG. 1) and [^18F]FEBrNT and 10 μM citalopram yielded maximal inhibition (90%) of binding.
The radiosynthesis for [^18F] 10a, [^18F]12a, and [^18F]12b employed the tosylates 9a and 13a,b as the substrates respectively. The tosylate 9a was treated with NCA K[^18F]/K222 for 10 min in 1 mL of CH3CN at 85° C. followed by TFA/CH2Cl2 at 27° C. […] [^18F]FEBrNT and [^18F]FEClNT were synthesized from the tosylates 13a and 13b in a similar manner. [^18F]FEINT and [18F]FEBrNT were incubated with pig tailed macaque coronal brain slices.

SERT [4] = target: T1, SERT; experiment: Ex vivo autoradiographic study in rats; parameters: species or system Sprague Dawley rat
Procedure: An initial ex vivo autoradiographic study was performed with either [^18F]FEINT or [^18F]FEBrNT in rats to measure brain penetration and regional distribution. A male Sprague Dawley rat was injected with one mCi of no-carrier added either […].

SERT [5] = target: T2, SERT (Macaca mulatta, UniProt Q9MYX0); experiment: PET imaging and fluvoxamine displacement in rhesus monkey; assay type: in vivo; settings: anesthetized rhesus monkey; thalamus, hypothalamus, pons / midbrain, brain stem
T2 construct: from tissue; host or cells: brain of a living rhesus monkey
Procedure: FIG. 3 is a graph showing time activity curves of [^18F]FEBrNT in a rhesus monkey in the thalamus (∘), hypothalamus (Δ), pons (⋄) and cerebellum (x) at 0-120 min i.v. post injection.

[6] = Table 3, rat, 60 min after i.v., Fluvoxamine
[7] = Table 3, rat, 60 min after i.v., No block
[8] = Table 4, rat, 30 min after i.v.
[9] = Table 4, rat, 60 min after i.v.
[10] = Table 4, rat, 120 min after i.v.

T1 sequence (P31652 whole entry): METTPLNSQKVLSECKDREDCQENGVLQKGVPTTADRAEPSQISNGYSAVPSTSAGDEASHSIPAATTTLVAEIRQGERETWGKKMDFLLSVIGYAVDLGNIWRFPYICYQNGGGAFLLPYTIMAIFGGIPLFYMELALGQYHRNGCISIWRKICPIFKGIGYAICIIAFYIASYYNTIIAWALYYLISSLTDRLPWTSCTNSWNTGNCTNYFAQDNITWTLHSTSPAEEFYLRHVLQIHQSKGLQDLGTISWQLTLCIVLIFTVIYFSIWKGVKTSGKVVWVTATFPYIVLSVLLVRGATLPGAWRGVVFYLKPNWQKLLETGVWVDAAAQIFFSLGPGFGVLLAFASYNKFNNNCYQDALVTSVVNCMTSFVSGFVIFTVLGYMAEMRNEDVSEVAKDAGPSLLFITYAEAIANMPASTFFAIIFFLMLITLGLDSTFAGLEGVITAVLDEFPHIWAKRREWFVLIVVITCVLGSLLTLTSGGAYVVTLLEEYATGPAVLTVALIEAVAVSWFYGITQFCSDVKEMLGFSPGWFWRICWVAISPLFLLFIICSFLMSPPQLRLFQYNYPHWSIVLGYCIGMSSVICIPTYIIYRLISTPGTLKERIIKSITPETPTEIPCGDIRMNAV
Chain of dopamine transporter (DAT) (P23977 whole entry): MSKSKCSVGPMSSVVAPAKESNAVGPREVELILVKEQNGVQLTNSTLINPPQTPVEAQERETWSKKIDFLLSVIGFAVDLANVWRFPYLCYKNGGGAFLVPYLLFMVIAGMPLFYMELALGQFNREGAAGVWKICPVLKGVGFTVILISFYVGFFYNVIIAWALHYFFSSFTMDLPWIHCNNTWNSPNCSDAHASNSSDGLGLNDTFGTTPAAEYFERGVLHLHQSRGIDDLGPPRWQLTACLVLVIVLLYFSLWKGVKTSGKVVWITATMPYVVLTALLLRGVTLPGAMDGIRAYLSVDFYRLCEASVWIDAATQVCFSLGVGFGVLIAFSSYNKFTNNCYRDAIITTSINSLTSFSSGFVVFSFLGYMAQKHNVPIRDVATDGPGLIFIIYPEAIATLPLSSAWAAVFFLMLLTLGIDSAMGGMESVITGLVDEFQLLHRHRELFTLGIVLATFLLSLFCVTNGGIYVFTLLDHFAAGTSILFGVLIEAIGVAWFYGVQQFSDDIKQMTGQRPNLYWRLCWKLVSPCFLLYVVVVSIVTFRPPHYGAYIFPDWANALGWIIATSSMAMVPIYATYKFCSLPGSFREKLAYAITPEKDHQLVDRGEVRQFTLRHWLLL
T2 sequence (Q9MYX0 whole entry): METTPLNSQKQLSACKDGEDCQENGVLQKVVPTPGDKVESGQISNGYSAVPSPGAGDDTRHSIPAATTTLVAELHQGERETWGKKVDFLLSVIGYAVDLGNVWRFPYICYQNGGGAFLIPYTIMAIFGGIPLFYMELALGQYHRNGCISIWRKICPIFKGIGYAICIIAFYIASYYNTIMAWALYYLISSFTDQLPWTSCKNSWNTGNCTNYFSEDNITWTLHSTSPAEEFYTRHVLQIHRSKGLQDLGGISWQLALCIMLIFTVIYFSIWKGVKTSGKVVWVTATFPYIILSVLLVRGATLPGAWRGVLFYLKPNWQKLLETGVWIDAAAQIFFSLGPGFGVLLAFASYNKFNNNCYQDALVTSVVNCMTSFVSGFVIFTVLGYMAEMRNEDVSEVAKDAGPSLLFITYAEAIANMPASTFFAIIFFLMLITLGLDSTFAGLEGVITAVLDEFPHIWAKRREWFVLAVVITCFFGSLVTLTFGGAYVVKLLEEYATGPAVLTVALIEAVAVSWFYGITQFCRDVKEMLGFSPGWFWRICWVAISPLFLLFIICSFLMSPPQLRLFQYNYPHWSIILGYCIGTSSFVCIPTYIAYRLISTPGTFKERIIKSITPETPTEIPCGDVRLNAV

CC=Cc1ccc(C2CC3CCC(N3)C2C(=O)OC)cc1 (stereo not drawn) [Nor-β-CCPPT, 2β-carbomethoxy-3β-(4′cis-propenylphenyl)notropane]
IC50 [1]: 0.032 µM | Selectivity for the SERT over the DAT (SERT [2]): 28 times | IC50 (SERT [2]; vs [3H]paroxetine): 0.00115 µM

COC(=O)C1C2CCC(CC1c1ccc(CC[18F])c(I)c1)N2 (centres unmarked) [[^18F]FEINT]
Hypothal/(CB) ratio (SERT [3]; [6]): 3.8 | Striatum/(CB) ratio (SERT [3]; [6]): 2.0 | Tissue uptake, Blood (SERT [3]; [6]): 0.07 (0.06-0.08) % dose/g | Tissue uptake, Cerebellum (SERT [3]; [6]): 0.1 (0.09-0.12) % dose/g | Tissue uptake, Cortex (SERT [3]; [6]): 0.15 (0.15-0.73) % dose/g | Tissue uptake, Hypothalamus (SERT [3]; [6]): 0.38 (0.28-0.45) % dose/g | Tissue uptake, Olf. T. (SERT [3]; [6]): 0.04 (0.19-0.55) % dose/g | Tissue uptake, Prefrontal Cortex (SERT [3]; [6]): 0.18 (0.06-0.41) % dose/g | Tissue uptake, Striatum (SERT [3]; [6]): 0.2 (0.16-1.40) % dose/g | Hypothal/(CB) ratio (SERT [3]; [7]): 4.8 and 4.6 | Striatum/(CB) ratio (SERT [3]; [7]): 2.3 | Tissue uptake, Blood (SERT [3]; [7]): 0.09 (0.09-0.99) % dose/g | Tissue uptake, Cerebellum (SERT [3]; [7]): 0.11 (0.11-0.12) % dose/g | Tissue uptake, Cortex (SERT [3]; [7]): 0.18 (0.15-0.19) % dose/g | Tissue uptake, Hypothalamus (SERT [3]; [7]): 0.5 (0.32-0.77) % dose/g | Tissue uptake, Olf. T. (SERT [3]; [7]): 1.46 (1.24-1.65) % dose/g | Tissue uptake, Prefrontal Cortex (SERT [3]; [7]): 0.25 (0.21-0.29) % dose/g | Tissue uptake, Striatum (SERT [3]; [7]): 0.25 (0.21-0.29) % dose/g | Hypothal/(CB) ratio (SERT [3]; Table 4, rat, 5 min after i.v.): 1.67 | Striatum/(CB) ratio (SERT [3]; Table 4, rat, 5 min after i.v.): 1.45 | Tissue uptake, Blood (SERT [3]; Table 4, rat, 5 min after i.v.): 0.19 (0.15-0.23) | Tissue uptake, Bone (SERT [3]; Table 4, rat, 5 min after i.v.): 0.27 (0.23-0.31) | Tissue uptake, Brain (SERT [3]; Table 4, rat, 5 min after i.v.): 0.65 (0.56-0.75) | Tissue uptake, Cerebellum (SERT [3]; Table 4, rat, 5 min after i.v.): 0.58 (0.51-0.65) | Tissue uptake, Cortex (SERT [3]; Table 4, rat, 5 min after i.v.): 0.76 (0.64-0.96) | Tissue uptake, Hypothalamus (SERT [3]; Table 4, rat, 5 min after i.v.): 0.97 (0.58-1.59) | Tissue uptake, Pre-frontal Cortex (SERT [3]; Table 4, rat, 5 min after i.v.): 0.75 (0.54-0.87) | Tissue uptake, Striatum (SERT [3]; Table 4, rat, 5 min after i.v.): 0.84 (0.59-1.20) | Hypothal/(CB) ratio (SERT [3]; [8]): 2.87 | Striatum/(CB) ratio (SERT [3]; [8]): 1.70 | Tissue uptake, Blood (SERT [3]; [8]): 0.14 (0.13-0.15) | Tissue uptake, Bone (SERT [3]; [8]): 0.70 (0.36-0.92) | Tissue uptake, Brain (SERT [3]; [8]): 0.35 (0.32-0.40) | Tissue uptake, Cerebellum (SERT [3]; [8]): 0.23 (0.22-0.23) | Tissue uptake, Cortex (SERT [3]; [8]): 0.36 (0.34-0.40) | Tissue uptake, Hypothalamus (SERT [3]; [8]): 0.66 (0.51-0.89) | Tissue uptake, Pre-frontal Cortex (SERT [3]; [8]): 0.37 (0.33-0.42) | Tissue uptake, Striatum (SERT [3]; [8]): 0.39 (0.29-0.55) | Hypothal/(CB) ratio (SERT [3]; [9]): 2.67 | Striatum/(CB) ratio (SERT [3]; [9]): 2.44 | Tissue uptake, Blood (SERT [3]; [9]): 0.10 (0.08-0.11) | Tissue uptake, Bone (SERT [3]; [9]): 0.95 (0.53-1.17) | Tissue uptake, Brain (SERT [3]; [9]): 0.14 (0.12-0.18) | Tissue uptake, Cerebellum (SERT [3]; [9]): 0.09 (0.07-0.11) | Tissue uptake, Cortex (SERT [3]; [9]): 0.13 (0.10-0.17) | Tissue uptake, Hypothalamus (SERT [3]; [9]): 0.24 (0.18-0.30) | Tissue uptake, Pre-frontal Cortex (SERT [3]; [9]): 0.14 (0.11-0.19) | Tissue uptake, Striatum (SERT [3]; [9]): 0.22 (0.17-0.31) | Hypothal/(CB) ratio (SERT [3]; [10]): 2.8 and 2.83 | Striatum/(CB) ratio (SERT [3]; [10]): 1.7 and 1.67 | Tissue uptake, Blood (SERT [3]; [10]): 0.63 (0.58-0.68) | Tissue uptake, Bone (SERT [3]; [10]): 1.26 (0.94-1.67) | Tissue uptake, Brain (SERT [3]; [10]): 0.89 (0.08-0.11) | Tissue uptake, Cerebellum (SERT [3]; [10]): 0.06 (0.05-0.08) | Tissue uptake, Cortex (SERT [3]; [10]): 0.09 (0.08-0.11) | Tissue uptake, Hypothalamus (SERT [3]; [10]): 0.17 (0.26-0.17) | Tissue uptake, Pre-frontal Cortex (SERT [3]; [10]): 0.10 (0.09-0.11) | Tissue uptake, Striatum (SERT [3]; [10]): 0.10 (0.09-0.13) | Clearance from the hypothalamus (SERT [3]; at 60 min compared to 5 min post injection): 75% | Clearance from the hypothalamus (SERT [3]; at 120 min compared to 5 min post injection): 85% | Localization of tracer binding in brain slices (SERT sites; slices exposed to film 30 min): localized to the thalamus, hypothalamus, caudate, amygloid complex, putamen and temporal cortex | Inhibition of tracer binding to brain slices (SERT sites; with 10 μM citalopram): 90% | Localization of tracer binding, ex vivo autoradiography (SERT [4]; 1 mCi tracer): localized to the thalamus, hypothalamus, caudate, putamen and amygloid complex | Effect of fluvoxamine block on tracer binding (SERT [4]; fluvoxamine 5 mg/kg 20 min prior to tracer): maximal inhibition of binding | Regional brain uptake by PET (SERT [5]): no visible uptake
